In patent US20260034138A1, “NOVEL PYRIMIDINYL AND TRIAZINYL SULFONAMIDE DERIVATIVES” (Hoffmann-La Roche Inc., priority 2022, published 2026):

biological target: human GPR17 short isoform (Homo sapiens, UniProt Q13304); assay: GPR17 cAMP assay (hGPR17 cAMP); format: cell-based; details: CHO-K1 cells stably expressing human GPR17 short isoform; antagonist mode vs EC80 of MDL29,951; forskolin 15 μM; TR-FRET cAMP
Protocol: GPR17 cAMP Assay Protocol:
CHO-K1 cells stably expressing vector containing untagged human GPR17 short isoform (Roche) were cultured at 37° C./5% CO2 in DMEM (Dulbecco's Modified Eagle Medium): F-12 (1:1) supplemented with 10% foetal bovine serum and 400 μg/ml Geneticin.
Changes in intracellular cyclic adenosine monophosphate (cAMP) levels were quantified using the Nano-TRF Detection Assay kit (Roche Diagnostics, Cat. No. 05214386001). This assay allows for direct cAMP quantification in a homogeneous solution. cAMP is detected based on time-resolved fluorescence energy transfer (TR-FRET) and competitive binding of ruthenylated cAMP and endogenous cAMP to an anti-cAMP monoclonal antibody labeled with AlexaFluor-700. The Ruthenium complex serves as the FRET donor and transfers energy to AlexaFluor-700. The FRET signal is inversely proportional to the CAMP concentration.
CHO-GPR17S cells were detached with Accutase and resuspended in assay buffer consisting of Hank's Balanced Salt Solution (HBSS), 10 mM HEPES (4-(2-hydroxyethyl) piperazine-1-ethanesulfonic acid solution) and 0.1% bovine serum albumin (pH 7.4). The cells were seeded in black 384-well plates (Corning) at a density of 10'000 cells/20 μl assay buffer until the addition of compounds.
Test antagonist compounds were serially diluted in dimethyl sulfoxide (DMSO) and spotted in 384-well plates. The compounds were then diluted in HBSS buffer supplemented with an EC80 concentration of MDL29,951 (3-(2-Carboxy-4,6-dichloroindol-3-yl) propionic acid) (GPR17 agonist) plus 3-Isobutyl-1-methylxanthine (IBMX) (0.5 mM final concentration) and added to the cells at room temperature. Forskolin (15 μM final concentration) was added 5 minutes after the test compounds and the cells were incubated at room temperature for 30 minutes. The assay was stopped by adding cAMP detection mix (containing detergents for cell lysis) for 90 minutes at room temperature.
Cellular cAMP was measured using a Paradigm reader (Molecular Devices). The raw data was used to calculate the FRET signal based on the assay's P-factor as per cAMP kit instructions. The data was normalized to the maximal activity of a reference antagonist and dose response curves were fitted to the percent activity of the test compounds using a sigmoidal dose response model (Genedata Screener).
Results in the hGPR17 cAMP assay are provided for compounds of formula I in Table 1

Chain of human GPR17 short isoform (Q13304 29-367): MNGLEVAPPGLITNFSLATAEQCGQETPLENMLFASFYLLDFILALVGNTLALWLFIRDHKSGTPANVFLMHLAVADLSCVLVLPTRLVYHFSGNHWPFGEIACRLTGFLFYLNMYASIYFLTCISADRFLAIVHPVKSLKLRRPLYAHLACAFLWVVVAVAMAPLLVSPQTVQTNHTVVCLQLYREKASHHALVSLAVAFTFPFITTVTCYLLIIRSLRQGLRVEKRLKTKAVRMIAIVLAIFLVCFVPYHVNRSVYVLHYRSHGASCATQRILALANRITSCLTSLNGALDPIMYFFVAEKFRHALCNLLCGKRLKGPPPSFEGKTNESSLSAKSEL

| IC50 [nM] | Structure (SMILES) |
| --- | --- |
| 772 | CCCc1ncc(NS(=O)(=O)c2c[nH]c3cc(Cl)ccc23)c(OC)n1 [Example 1, 6-chloro-N-(4-methoxy-2-propyl-pyrimidin-5-yl)-1H-indole-3-sulfonamide] |
| 637 | CCc1ncc(NS(=O)(=O)c2c[nH]c3cc(Cl)ccc23)c(OC)n1 [Example 2, 6-chloro-N-(2-ethyl-4-methoxy-pyrimidin-5-yl)-1H-indole-3-sulfonamide] |
| 159 | COc1nc(OC(F)F)ncc1NS(=O)(=O)c1c[nH]c2cc(Cl)ccc12 [Example 3, 6-chloro-N-[2-(difluoromethoxy)-4-methoxy-pyrimidin-5-yl]-1H-indole-3-sulfonamide] |
| 460 | COc1nc(OCC(F)F)ncc1NS(=O)(=O)c1c[nH]c2nc(Cl)ccc12 [Example 4, 6-chloro-N-[2-(2,2-difluoroethoxy)-4-methoxy-pyrimidin-5-yl]-1H-pyrrolo[2,3-b]pyridine-3-sulfonamide] |
| 174 | O=S(=O)(Nc1cnc(OCC(F)F)nc1OC(F)F)c1c[nH]c2cc(Cl)ccc12 [Example 5, 6-chloro-N-[2-(2,2-difluoroethoxy)-4-(difluoromethoxy)pyrimidin-5-yl]-1H-indole-3-sulfonamide] |
| 1190 | O=S(=O)(Nc1cnc(Cl)nc1Cl)c1c[nH]c2cc(Cl)ccc12 [Example 6, 6-chloro-N-(2,4-dichloropyrimidin-5-yl)-1H-indole-3-sulfonamide] |
| 727 | COc1nc(OCCF)ncc1NS(=O)(=O)c1c[nH]c2cc(Cl)ccc12 [Example 7, 6-chloro-N-(2-(2-fluoroethoxy)-4-methoxypyrimidin-5-yl)-1H-indole-3-sulfonamide] |
| 121 | COc1nc(OCC(F)F)ncc1NS(=O)(=O)c1c[nH]c2cc(Cl)ccc12 [Example 8, 6-chloro-N-(2-(2,2-difluoroethoxy)-4-methoxypyrimidin-5-yl)-1H-indole-3-sulfonamide] |
| 53 | COc1nc(OCC(F)F)ncc1NS(=O)(=O)c1c[nH]c2cc(Br)ccc12 [Example 9, 6-bromo-N-[2-(2,2-difluoroethoxy)-4-methoxy-pyrimidin-5-yl]-1H-indole-3-sulfonamide] |
| 167 | COc1nc(OCC(F)F)ncc1NS(=O)(=O)c1c[nH]c2nc(Br)ccc12 [Example 10, 6-bromo-N-[2-(2,2-difluoroethoxy)-4-methoxy-pyrimidin-5-yl]-1H-pyrrolo[2,3-b]pyridine-3-sulfonamide] |
| 347 | COc1nc(OCC(F)F)ncc1NS(=O)(=O)c1c[nH]c2cc(C(F)(F)F)ccc12 [Example 11, N-[2-(2,2-difluoroethoxy)-4-methoxy-pyrimidin-5-yl]-6-(trifluoromethyl)-1H-indole-3-sulfonamide] |
| 908 | COc1nc(NS(=O)(=O)c2c[nH]c3cc(Cl)ccc23)nnc1CC(F)F [Example 12, 6-chloro-N-[6-(2,2-difluoroethyl)-5-methoxy-1,2,4-triazin-3-yl]-1H-indole-3-sulfonamide] |
| 5220 | COc1nc(NS(=O)(=O)c2c[nH]c3cc(Cl)ccc23)nnc1C [Example 13, 6-chloro-N-(5-methoxy-6-methyl-1,2,4-triazin-3-yl)-1H-indole-3-sulfonamide] |

system: not listed separately; assay: Microsome Clearance Assay; format: in vitro ADME; details: human microsomes 0.5 mg/mL plus NADPH, 37° C., test compound 1 microM final
Protocol: Microsome Clearance Assay Protocol:
Incubations at a test compound of 1 mM in microsomes (0.5 mg/mL) plus cofactor NADPH are performed in 96 well plates at 37° C. on a TECAN (Tecan Group Ltd, Switzerland) automated liquid handling system. The final concentration of the test compound in the incubation is 1 microM. After a 10 minutes preincubation step of the test compound with the microsomes, the enzymatic reaction is started by the addition of cofactors. At 1, 3, 6, 9, 15, 25, 35 and 45 minutes, aliquots of the incubations are removed and quenched with 1:3 (v/v) acetonitrile containing internal standards. Samples are then cooled and centrifuged before analysis of the supernatant by LC-MS/MS.
Reference compounds were tested against exemplified compounds for their Microsome Clearance to evaluate metabolite stability.

| microsomal CLint at 1 microM [µL/min/mg] | Structure (SMILES) |
| --- | --- |
| 10 | COc1nc(OCC(F)F)ncc1NS(=O)(=O)c1c[nH]c2nc(Cl)ccc12 [Example 4, 6-chloro-N-[2-(2,2-difluoroethoxy)-4-methoxy-pyrimidin-5-yl]-1H-pyrrolo[2,3-b]pyridine-3-sulfonamide] |
| 10 | COc1nc(NS(=O)(=O)c2c[nH]c3cc(Cl)ccc23)nnc1CC(F)F [Example 12, 6-chloro-N-[6-(2,2-difluoroethyl)-5-methoxy-1,2,4-triazin-3-yl]-1H-indole-3-sulfonamide] |
| 41 | COc1nc(OCC(F)F)c(F)cc1NS(=O)(=O)c1c[nH]c2nc(Cl)ccc12 [RE-A, 6-chloro-N-[6-(2,2-difluoroethoxy)-5-fluoro-2-methoxy-3-pyridyl]-1H-pyrrolo[2,3-b]pyridine-3-sulfonamide, reference compound] |
